This is an account of results in article PMC9228412, “Synthesis and Activity of Triazole-Adenosine Analogs as Protein Arginine Methyltransferase 5 Inhibitors” (Molecules, 2022).

Where two headings read alike, the source gives them in different places. A value given as a limit tells only on which side of the number the result lay.

The test system of series [1] is PRMT5. The settings on record: cited from earlier work.
Series [2] concerns the target T1, PRMT5 (Homo sapiens, UniProt O14744).
T1 construct: His-tag; made in house; host or cells: Sf9 insect cells (Bac-to-Bac baculovirus)
In words: scintillation proximity assay (SPA) of PRMT5 methyltransferase activity. Format: biochemical. The settings on record: for remaining activity at 10 µM: 0.5 h, remaining activity of the enzyme, single point SPA test, inhibitor 10 μM, read-out: Relative Activity of PRMT5 at 10 μM. The protocol: (§1) The methyltransferase activities of PRMT5 and PRMT1 in the absence and presence of the synthetic inhibitors were measured by using the scintillation proximity assay (SPA) protocol (Table 1). In the initial test, the inhibitor concentration was set at 10 μM. H4(1–20)K20biotin [Ac-[…](biotin)-NH2] was used as the peptide substrate, at a final concentration of 0.5 μM. ^3H-SAM was used as the methyl donor at 0.5 μM. SAH was used as a control inhibitor. […] Analysis of the biochemical activity results against PRMT5 disclosed a few interesting structure–activity relationship (SAR) trends. […] If the hydroxyl group of 3 was changed to an amine (6), the potency was improved; however, the selectivity was abolished. Generally, compounds that contained positive charges (6, 20, 21, 22, 24) near the triazole ring had further improved potencies.
Human recombinant His-tag PRMT5 was co-expressed with His-tag MEP50 using the Bac-to-Bac baculovirus expression system (Invitrogen, Life Technologies, Carlsbad, CA, USA) as previously described. Briefly, pFB-LIC-Bse-PRMT5 and pFB-LIC-Bse-MEP50 were heat shock transformed in the DH10Bac E. coli to obtain the recombinant bacmids, and the bacmids were extracted using the PureLink HiPure Plasmid Miniprep Kit (Invitrogen, Thermo Scientific, Carlsbad, CA, USA). The purity and concentration of the plasmid were measured by a Nanodrop. Sf9 cells were cultured in Sf-900 II SFM medium until the cell density reached 1.5 × 10^6 cells/mL and cell viability was more than 95%. Cells were plated in a 6-well tissue culture plate at a density of 4 × 10^5 cells/mL per well. In total, 2 µg of PRMT5 and MEP50 recombinant bacmid were transfected into each well of cells. After 5 h of transfection, the transfection medium was replaced by 2 mL of Sf-900 II SFM + 100 U P/S per well. The medium was collected and centrifuged at 1000 rpm for 5 min to obtain the supernatant P1 viral stock after 7 days of inoculation at 27.5 °C. To obtain a higher titer of viral stock, P1 viral stock was amplified in a 6-well tissue culture plate containing 2 × 10^6 cells per well. In total, 0.1 MOI of P1 virus stock was added into each well. After 7 days of incubation at 27.5 °C, the cell medium was centrifuged at 1000 rpm for 5 min to obtain the P2 viral stock in the supernatant. The Baculovirus plaque assay was performed to determine the viral titer concentration; the target concentration range was 1 × 10^7–1 × 10^8 IFU/mL.
For the expression of PRMT5 and MEP50, Sf9 insect cells were cultured in suspension at 27.5 °C at a speed of 130 rpm in Expression Systems ESF 921 medium with 100 U P/S. In total, 200 mL of Sf9 cell culture was inoculated with PRMT5 and MEP50 P2 viral stocks when the cell density reached 1.5 × 10^6 cells/mL. After incubation for 72 h at 27.5 °C, the cells were harvested and centrifuged. PRMT5 and MEP50 protein were collected in the cell pellet for further purification. Cell pellets were disrupted twice at 100 psi in 25 mL of cell lysis buffer (50 mM Tris pH 8, 300 mM NaCl, 10% glycerol, 0.1% Triton X-100, 1 mM PMSF). Before the Ni-NTA purification, 10 mL of Ni-NTA resin (EMD Millipore, Burlington, MA, USA) was loaded into a 50 mL column and equilibrated with equilibration buffer (50 mM Tris pH 8, 250 mM NaCl, 30 mM Imidazole, 10% glycerol, 1 mM TCEP, 1 mM PMSF). After 60 min of cell lysate centrifugation at 4 °C at 18,000 rpm, the cell lysate supernatant was incubated with the equilibrated nickel resin. The resin was washed with equilibration buffer and protein was eluted with elution buffer (50 mM Tris pH 8, 250 mM NaCl, 300 mM Imidazole, 10% glycerol, 1 mM TCEP, 1 mM PMSF). For the dialysis of protein, elution samples were loaded into a 10,000 MWCO SnakeSkin (Thermo Scientific, Waltham, MA, USA) dialysis bag in the storage buffer (50 mM Tris pH 8, 250 mM NaCl, 10% glycerol, 1 mM TCEP). […]

The next series deals with PRMT1 (Homo sapiens, UniProt Q99873). In words: scintillation proximity assay (SPA) of PRMT1 methyltransferase activity. Format: biochemical. The settings on record: for remaining activity at 10 µM: 0.5 h, remaining activity of the enzyme, single point SPA test, inhibitor 10 μM, read-out: Relative Activity of PRMT1 at 10 μM. On the procedure: as §1
Inhibitor was dissolved in water to create a 10 mM stock concentration. This was then diluted in buffer (50 mM HEPES pH 8, 10 mM NaCl, 0.5 mM EDTA, 0.5 mM DTT in H2O) to create a series of working concentrations centered around an anticipated IC50. [H]^3-SAM and substrate were diluted together in buffer to working concentrations of […], respectively. To each well in a 96-well plate, 6 μL of the inhibitor solution was added, with negative and positive controls receiving buffer. In total, 6 μL of the [H]^3-SAM/substrate solution was then added to each well. The enzyme was then diluted in buffer to a working concentration of 0.83 μM, and 18 μL was added to each well, with negative controls receiving 18 μL of buffer. The plate was covered, and the reaction was allowed to run for 30 min and was then quenched with the addition of 30 μL of 100% iPrOH followed by 60 μL of 50% iPrOH in H2O. In total, 10 μL of 20 mg/mL streptavidin-coated scintillant beads were added and the plate was read using a MicroBeta (Perkin Elmer, Waltham, MA, USA) plate reader. The CPM counts in the absence of an inhibitor for each data set were considered as 100% activity. In the absence of the enzyme and inhibitor, the CPM counts in each data set were defined as background (0%).

Series [3] concerns 29 other human methyltransferases. More on the design: method as in PMID 25893041. The settings on record: cited from earlier work.
On the set-up of series [4]: method as in PMID 25915199. The settings on record: cited from earlier work.
Another series deals with BCR-ABL-driven CML. Details: method as in PMID 27643437. The settings on record: murine model of BCR-ABL-driven CML; cited from earlier work.
Setting [5] is: 0.5 μM H4(1–20)K20biotin, 0.5 μM 3H-SAM.
[6] abbreviates: SPA, concentration-dependent, 0.5 μM H4(1–20)K20biotin, 0.5 μM 3H-SAM, read-out: IC50 PRMT5 (converted).
Setting [7] is: SPA, concentration-dependent, read-out: IC50 PRMT1 (converted).

T1 sequence (O14744 whole entry): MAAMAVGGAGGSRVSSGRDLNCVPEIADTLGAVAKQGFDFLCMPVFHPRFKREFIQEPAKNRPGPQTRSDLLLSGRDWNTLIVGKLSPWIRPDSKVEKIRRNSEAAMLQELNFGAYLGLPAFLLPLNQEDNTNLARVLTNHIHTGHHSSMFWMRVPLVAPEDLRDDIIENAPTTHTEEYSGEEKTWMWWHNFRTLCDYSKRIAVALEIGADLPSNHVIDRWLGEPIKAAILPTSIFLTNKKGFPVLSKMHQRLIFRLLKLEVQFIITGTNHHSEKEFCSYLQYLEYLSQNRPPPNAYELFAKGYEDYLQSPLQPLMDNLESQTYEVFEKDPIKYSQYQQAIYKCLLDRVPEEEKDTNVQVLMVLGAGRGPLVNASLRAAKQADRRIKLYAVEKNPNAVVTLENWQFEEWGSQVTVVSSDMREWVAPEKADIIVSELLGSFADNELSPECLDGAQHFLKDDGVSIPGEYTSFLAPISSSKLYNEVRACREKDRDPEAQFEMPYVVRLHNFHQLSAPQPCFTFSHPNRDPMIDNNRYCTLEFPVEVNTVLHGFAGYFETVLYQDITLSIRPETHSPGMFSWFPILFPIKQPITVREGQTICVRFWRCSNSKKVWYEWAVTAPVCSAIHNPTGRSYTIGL
T1 sequence (Q9BQA1 whole entry partner): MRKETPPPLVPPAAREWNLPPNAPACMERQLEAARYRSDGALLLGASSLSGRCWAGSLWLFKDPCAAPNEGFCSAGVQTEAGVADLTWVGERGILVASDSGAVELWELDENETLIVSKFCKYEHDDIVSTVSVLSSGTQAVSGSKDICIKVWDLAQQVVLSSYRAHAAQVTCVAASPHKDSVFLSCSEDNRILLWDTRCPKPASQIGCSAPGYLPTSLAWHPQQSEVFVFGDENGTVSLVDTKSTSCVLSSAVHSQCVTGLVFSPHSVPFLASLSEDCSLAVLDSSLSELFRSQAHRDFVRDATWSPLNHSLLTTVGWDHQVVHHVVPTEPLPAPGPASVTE
Sequence of PRMT1 (Q99873 whole entry, species assumed): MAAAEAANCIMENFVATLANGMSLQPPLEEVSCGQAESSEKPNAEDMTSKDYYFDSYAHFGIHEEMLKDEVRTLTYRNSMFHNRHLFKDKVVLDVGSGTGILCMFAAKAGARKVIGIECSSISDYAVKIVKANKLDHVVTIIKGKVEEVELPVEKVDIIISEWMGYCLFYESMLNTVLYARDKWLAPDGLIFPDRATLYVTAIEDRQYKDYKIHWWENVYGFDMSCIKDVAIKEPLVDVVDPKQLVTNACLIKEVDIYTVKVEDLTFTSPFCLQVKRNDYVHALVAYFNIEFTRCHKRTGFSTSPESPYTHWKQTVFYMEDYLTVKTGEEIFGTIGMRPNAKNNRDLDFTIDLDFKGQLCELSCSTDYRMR

`CCn1c2ccccc2c2cc(CNCc3ccccn3)ccc21` [CMP5]: the potency in the series with PRMT5 [1] was 50 µM.

Turning to `CCC(=O)Oc1ccc(CCc2cn(C[C@H]3O[C@@H](n4cnc5c(N)ncnc54)[C@H](O)[C@@H]3O)nn2)cc1OC(=O)C(C)C` [Compound 17], the figures for the remaining activity at 10 µM on PRMT5 [2] (setting [5]) and on PRMT1 were 56 ± 10% and 91 ± 11%, respectively.

With `Nc1ncnc2c1ncn2[C@@H]1O[C@H](Cn2cc(C[C@H](NC(=O)OCC3c4ccccc4-c4ccccc43)C(=O)O)nn2)[C@@H](O)[C@H]1O` [Compound 18, (S)-2-((((9H-fluoren-9-yl)methoxy)carbonyl)amino)-3-(1-(((2R,3S,4R,5R)-5-(6-amino-9H-purin-9-yl)-3,4-dihydroxytetrahydrofuran-2-yl)methyl)-1H-1,2,3-triazol-4-yl)propanoic acid], the results for the remaining activity at 10 µM at PRMT5 [2] (setting [5]) and at PRMT1 were 56 ± 6.4% and 91.2 ± 4.7%, respectively.

Turning to `Nc1ncnc2c1ncn2[C@@H]1O[C@H](Cn2cc(C[C@H](N)C(=O)O)nn2)[C@@H](O)[C@H]1O` [Compound 19, (S)-2-amino-3-(1-(((2R,3S,4R,5R)-5-(6-amino-9H-purin-9-yl)-3,4-dihydroxytetrahydrofuran-2-yl)methyl)-1H-1,2,3-triazol-4-yl)propanoic acid], the IC50 was 18.9 µM at PRMT5 [2] (setting [6]) and greater than 200 µM at PRMT1 (setting [7]).

`CC(C)[C@H](N)C(=O)OCc1cn(C[C@H]2O[C@@H](n3cnc4c(N)ncnc43)[C@H](O)[C@@H]2O)nn1` [Compound 20, (1-(((2R,3S,4R,5R)-5-(6-amino-9H-purin-9-yl)-3,4-dihydroxytetrahydrofuran-2-yl)methyl)-1H-1,2,3-triazol-4-yl)methyl L-valinate]: the remaining activity at 10 µM amounted to 26 ± 0.45% on PRMT5 [2] (setting [5]) and 111 ± 5.5% on PRMT1. For the same compound, the IC50 on PRMT5 [2] (setting [6]) was 0.88 µM; at PRMT1 (setting [7]), 43.5 µM. In addition, the “selectivity for PRMT5 over PRMT1” value at PRMT5 [2] (ratio of IC50 values) was “approximately 49 fold”.

On to `Cc1cccc(NC(=O)CNCc2cn(C[C@H]3O[C@@H](n4cnc5c(N)ncnc54)[C@H](O)[C@@H]3O)nn2)c1` [Compound 21, 2-(((1-(((2R,3S,4R,5R)-5-(6-amino-9H-purin-9-yl)-3,4-dihydroxytetrahydrofuran-2-yl)methyl)-1H-1,2,3-triazol-4-yl)methyl)amino)-N-(m-tolyl)acetamide], for which the remaining activity at 10 µM amounted to 32 ± 3.3% at PRMT5 [2] (setting [5]) and 84 ± 55% on PRMT1.

For the compound `COC(=O)c1ccc(CNCc2cn(C[C@H]3O[C@@H](n4cnc5c(N)ncnc54)[C@H](O)[C@@H]3O)nn2)cc1` [Compound 22, Methyl 4-((((1-(((2R,3S,4R,5R)-5-(6-amino-9H-purin-9-yl)-3,4-dihydroxytetrahydrofuran-2-yl)methyl)-1H-1,2,3-triazol-4-yl)methyl)amino)methyl)benzoate], the remaining activity at 10 µM at PRMT5 [2] (setting [5]) amounted to 30 ± 1.7%; on PRMT1 it was 94.2 ± 2.2%. For the same compound, the half-maximal inhibitory concentration (IC50) was 1.3 µM at PRMT5 [2] (setting [6]) and 130 µM at PRMT1 (setting [7]).

`Nc1ncnc2c1ncn2[C@@H]1O[C@H](Cn2cc(CNC(=O)Nc3ccc(Cl)cc3)nn2)[C@@H](O)[C@H]1O` [Compound 23]: the figures for the remaining activity at 10 µM on PRMT5 [2] (setting [5]) and at PRMT1 were 70 ± 5.6% and 91.8 ± 16%, respectively.

As to `Nc1ncnc2c1ncn2[C@@H]1O[C@H](Cn2cc(CNCC(=O)Nc3ccccc3F)nn2)[C@@H](O)[C@H]1O` [Compound 24, 2-(((1-(((2R,3S,4R,5R)-5-(6-amino-9H-purin-9-yl)-3,4-dihydroxytetrahydrofuran-2-yl)methyl)-1H-1,2,3-triazol-4-yl)methyl)amino)-N-(2-fluorophenyl)acetamide], the values for the remaining activity at 10 µM on PRMT5 [2] (setting [5]) and at PRMT1 were 40 ± 3.6% and 93 ± 1.3%, respectively. Besides, at PRMT5 [2] (setting [6]), the IC50 was 13.2 µM.

For the compound `CC(C)(C)OC(=O)NCC(=O)NCc1cn(C[C@H]2O[C@@H](n3cnc4c(N)ncnc43)[C@H](O)[C@@H]2O)nn1` [Compound 25], the remaining activity at 10 µM worked out at 72 ± 9.6% at PRMT5 [2] (setting [5]) and 99.1 ± 13% at PRMT1.

As for `Nc1cc2c(cc1F)OCC(=O)N2Cc1cn(C[C@H]2O[C@@H](n3cnc4c(N)ncnc43)[C@H](O)[C@@H]2O)nn1` [Compound 26], the remaining activity at 10 µM at PRMT5 [2] (setting [5]) is 83 ± 2.5%; at PRMT1, 100 ± 4.6%.

As to `CC(C)(C)OC(=O)NCCS(=O)(=O)Cc1cn(C[C@H]2O[C@@H](n3cnc4c(N)ncnc43)[C@H](O)[C@@H]2O)nn1` [Compound 28], the remaining activity at 10 µM turned out to be 76 ± 11% at PRMT5 [2] (setting [5]) and 77 ± 23% on PRMT1.

For `CC(=O)N[C@@H](CCCNC(=N)N)C(=O)N[C@@H](CCCNC(=N)N)C(=O)N[C@@H](Cc1cn(C[C@H]2O[C@@H](n3cnc4c(N)ncnc43)[C@H](O)[C@@H]2O)nn1)C(=O)N[C@@H](CCCNC(=N)N)C(=O)N[C@@H](CCCNC(=N)N)C(N)=O` [Compound 29], the IC50 at PRMT5 [2] is 53.7 µM; at PRMT1, greater than 400 µM.

With `CC(=O)N[C@@H](CO)C(=O)NCC(=O)N[C@@H](Cc1cn(C[C@H]2O[C@@H](n3cnc4c(N)ncnc43)[C@H](O)[C@@H]2O)nn1)C(=O)NCC(=O)N[C@@H](CCCCN)C(N)=O` [Compound 30], the results for the IC50 against PRMT5 [2] and on PRMT1 were 45.6 µM and 46.1 µM, respectively.

`CCNC(=O)NCCSC[C@H]1O[C@@H](n2cnc3c(N)ncnc32)[C@H](O)[C@@H]1O` [DS-437]: the IC50 in the series with PRMT5 [1] (dual PRMT5/PRMT7 inhibitor) was 6 µM. Besides, the “activity towards 29 other human methyltransferases” value in series [3] is “inactive”.

Take `OC(COc1cccc(CNC2CCCC2)c1)CN1CCc2ccccc2C1` (stereo not drawn) [EPZ007345]: the potency in the series on PRMT5 [1] is 0.326 µM. Moreover, in series [4], the in vitro clearance result is on record as “poor”.

`Nc1nc2cc(CC[C@H]3C[C@@H](n4ccc5c(N)ncnc54)[C@H](O)[C@@H]3O)ccc2cc1Br` [JNJ-64619178]: the IC50 in the series with PRMT5 [1] (bisubstrate inhibitor) was 0.00015 µM.

As for `CCn1c2ccccc2c2cc(CNC3CCCc4ccccc43)ccc21` (stereo not drawn) [PJ-68], in the series with BCR-ABL-driven CML, the survival result is on record as “significant increase in survival”.
